The supplement of paper PMC10307832

Assays:
Experiment in all cases: relative viability (nuclei count vs DMSO), 5 days (fraction); higher = more cells survive
[1] = compound: O=c1ncccn1[C@@H]1O[C@H](CO)[C@@H](O)[C@H]1O [Zebularine] + N=C(N)NC(=N)NCCc1ccccc1 [Phenformin] (partner 250 µM)
Summary of the method: (§1)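 Relative viability equals treated-well nuclei counts divided by vehicle-well nuclei counts. Counts came from 4× images of lung cancer cell lines grown in 1536-well plates for 5 days after pin-tool dosing on the day after seeding. Dosing used one drug alone or a fixed anchor-drug dose plus five library-drug doses (not always all listed) in √10 steps, and values are medians of duplicate plates.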

[2] = compound: O=c1ncccn1[C@@H]1O[C@H](CO)[C@@H](O)[C@H]1O [Zebularine] + Cc1nc(NC(=O)N2CCC[C@H]2C(N)=O)sc1-c1ccnc(C(C)(C)C(F)(F)F)c1 [Alpelisib] (partner 2 µM)
Summary of the method: as §1

[3] = compound: O=c1ncccn1[C@@H]1O[C@H](CO)[C@@H](O)[C@H]1O [Zebularine] + CC(=O)c1c(C)c2cnc(Nc3ccc(N4CCNCC4)cn3)nc2n(C2CCCC2)c1=O [Palbociclib] (partner 0.5 µM)
Summary of the method: as §1

[4] = compound: O=c1ncccn1[C@@H]1O[C@H](CO)[C@@H](O)[C@H]1O [Zebularine] + Cc1cc(Nc2cc(N3CCN(C)CC3)nc(Sc3ccc(NC(=O)C4CC4)cc3)n2)n[nH]1 [Tozasertib] (partner 0.1 µM)
Summary of the method: as §1

| Cell Line | relative viability ([1]; first compound 1 µM) | relative viability ([1]; first compound 3.162 µM) | relative viability ([1]; first compound 10 µM) | relative viability ([1]; first compound 31.62 µM) | relative viability ([1]; first compound 100 µM) | relative viability ([2]; first compound 1 µM) | relative viability ([2]; first compound 3.162 µM) | relative viability ([2]; first compound 10 µM) | relative viability ([2]; first compound 31.62 µM) | relative viability ([2]; first compound 100 µM) | relative viability ([3]; first compound 1 µM) | relative viability ([3]; first compound 3.162 µM) | relative viability ([3]; first compound 10 µM) | relative viability ([3]; first compound 31.62 µM) | relative viability ([3]; first compound 100 µM) | relative viability ([4]; first compound 1 µM) | relative viability ([4]; first compound 3.162 µM) | relative viability ([4]; first compound 10 µM) | relative viability ([4]; first compound 31.62 µM) | relative viability ([4]; first compound 100 µM) |
| --- | --- | --- | --- | --- | --- | --- | --- | --- | --- | --- | --- | --- | --- | --- | --- | --- | --- | --- | --- | --- |
| HCC-366 | 0.709 | 0.613 | 0.495 | 0.503 | 0.0892 | 0.409 | 0.434 | 0.161 | 0.509 | 0.182 | 0.367 | 0.387 | 0.246 | 0.23 | 0.108 | 0.169 | 0.112 | 0.182 | 0.132 | 0.0608 |
| HCC-827 | 0.486 | 0.396 | 0.45 | 0.379 | 0.278 | 1.02 | 1.11 | 0.84 | 0.673 | 0.305 | 0.555 | 0.551 | 0.424 | 0.485 | 0.339 | 0.417 | 0.445 | 0.306 | 0.373 | 0.196 |
| HOP-62 | 0.827 | 0.653 | 0.286 | 0.282 | 0.266 | 0.932 | 0.64 | 0.603 | 0.22 | 0.127 | 0.496 | 0.437 | 0.218 | 0.158 | 0.152 | 0.503 | 0.396 | 0.212 | 0.154 | 0.167 |
| IA-LM | – | – | – | – | – | 0.768 | 0.584 | 0.494 | 1.13 | 0.996 | – | – | – | – | – | – | – | – | – | – |
| LC-2-ad | 0.657 | 0.538 | 0.416 | 0.488 | 0.325 | 1.03 | 0.865 | 0.539 | 0.491 | 0.135 | 0.496 | 0.507 | 0.322 | 0.408 | 0.301 | 0.413 | 0.427 | 0.347 | 0.422 | 0.396 |
| LCLC-97TM1 | 0.401 | 0.413 | 0.322 | 0.256 | 0.272 | 0.23 | 0.224 | 0.193 | 0.12 | 0.112 | 0.2 | 0.199 | 0.0967 | 0.102 | 0.111 | 0.253 | 0.225 | 0.191 | 0.102 | 0.115 |
| LCLC-103H | 0.365 | 0.337 | 0.261 | 0.391 | 0.303 | 1.08 | 0.945 | 0.95 | 0.904 | 0.761 | 0.49 | 0.45 | 0.482 | 0.505 | 0.473 | 0.448 | 0.43 | 0.402 | 0.471 | 0.355 |
| LK-2 | 0.759 | 0.355 | 0.289 | 0.372 | 0.259 | 1.15 | 1.29 | 0.541 | 0.665 | 0.407 | 0.874 | 0.797 | 0.424 | 0.28 | 0.204 | 0.179 | 0.188 | 0.171 | 0.178 | 0.166 |
| LOU-NH91 | 0.674 | 0.717 | 0.437 | 0.693 | 0.549 | 0.703 | 0.719 | 0.686 | 0.693 | 0.56 | 0.54 | 0.524 | 0.518 | 0.552 | 0.47 | 0.7 | 0.641 | 0.68 | 0.704 | 0.384 |
| LU99A | 0.856 | 0.831 | 0.551 | 0.558 | 0.208 | 0.58 | 0.506 | 0.451 | 0.292 | 0.152 | 0.483 | 0.433 | 0.331 | 0.278 | 0.187 | 0.296 | 0.276 | 0.239 | 0.261 | 0.159 |
| LXF-289 | 0.512 | 0.503 | 0.41 | 0.406 | 0.26 | 1.08 | 1.06 | 0.827 | 0.811 | 0.329 | 0.641 | 0.66 | 0.573 | 0.395 | 0.233 | 0.19 | 0.169 | 0.124 | 0.0978 | 0.116 |
| NCI-H522 | 0.589 | 0.631 | 0.622 | 0.656 | 0.65 | – | – | – | – | – | 0.923 | 0.942 | 0.926 | 0.827 | 0.765 | 0.549 | 0.526 | 0.527 | 0.522 | 0.577 |
| NCI-H596 | 0.844 | 0.817 | 0.579 | 0.776 | 0.807 | 0.476 | 0.462 | 0.427 | 0.566 | 0.483 | – | – | – | – | – | 0.847 | 1.1 | 0.618 | 0.958 | 0.845 |
| NCI-H1299 | – | – | – | – | – | 1.05 | 1.16 | 0.836 | 1.16 | 0.529 | – | – | – | – | – | – | – | – | – | – |
| NCI-H1563 | 0.684 | 0.674 | 0.647 | 0.702 | 0.661 | 0.932 | 0.888 | 0.927 | 0.955 | 0.909 | – | – | – | – | – | – | – | – | – | – |
| NCI-H1648 | – | – | – | – | – | – | – | – | – | – | 0.316 | 0.226 | 0.301 | 0.25 | 0.24 | 0.551 | 0.418 | 0.407 | 0.342 | 0.379 |
| NCI-H1650 | 0.493 | 0.476 | 0.307 | 0.492 | 0.353 | – | – | – | – | – | 0.349 | 0.359 | 0.311 | 0.504 | 0.285 | 0.509 | 0.308 | 0.325 | 0.361 | 0.341 |
| NCI-H1703 | – | – | – | – | – | 0.311 | 0.337 | 0.307 | 0.325 | 0.353 | – | – | – | – | – | – | – | – | – | – |
| NCI-H1792 | 0.44 | 0.281 | 0.119 | 0.258 | 0.189 | 0.8 | 0.622 | 0.514 | 0.215 | 0.316 | 0.639 | 0.732 | 0.282 | 0.401 | 0.423 | – | – | – | – | – |
| NCI-H2342 | 0.635 | 0.528 | 0.49 | 0.73 | 0.59 | – | – | – | – | – | 0.508 | 0.498 | 0.5 | 0.526 | 0.47 | 0.451 | 0.4 | 0.446 | 0.476 | 0.469 |
| SW 900 | 0.809 | 0.559 | 0.349 | 0.65 | 0.407 | – | – | – | – | – | 0.503 | 0.484 | – | 0.669 | 0.527 | 0.659 | 0.548 | 0.445 | 0.478 | 0.371 |
